Experimental data reported in patent publication US11254640B2, “N-substituted indoles and other heterocycles for treating brain disorders” (The Regents of the University of California, priority 2019, dated 2022).

tested on: 5HT2A sensor; experiment: 5HT2A sensor assay, antagonist mode (sLight1.3s HEK293T stable line); assay type: cell-based; settings: 100 nM compound; relative to 5-HT at 100 nM
Method: In some embodiments, the 5HT2A sensor assay is in an antagonist mode.
(§1) 5HT2A Sensor Assays. HEK293T (ATCC) 5HT2A sensor stable line (sLight1.3s) was generated via lentiviral transduction of HIV-EF1α-sLight1.3 and propagated from a single colony. Lentivirus was produced using 2nd generation lentiviral plasmids pHIV-EF1α-sLight1.3, pHCMV-G, and pCMV-deltaR8.2.
(§2) For the screening of the 41 compounds, sLight1.3s cells were plated in 96-well plates at a density of 40000 24-hours prior to imaging. On the day of imaging, compounds solubilized in DMSO were diluted from the 100 mM stock solution to working concentrations of 1 mM, 100 μM and 1 μM with a DMSO concentration of 1%. Immediately prior to imaging, cells growing in DMEM (Gibco) were washed 2× with HBSS (Gibco) and in agonist mode 180 μL of HBSS or in antagonist mode 160 μL of HBSS was added to each well after the final wash. For agonist mode, images were taken before and after the addition of the 20 μL compound working solution into the wells containing 180 μL HBSS. This produced final compound concentrations of 100 μM, 10 μM and 100 nM with a DMSO concentration of 0.1%. For antagonist mode, images were taken before and after addition of 20 μL of 900 nM 5-HT and again after 20 μL of the compound working solutions to produce final concentrations of 100 nM for 5HT and 100 μM, 10 μM and 100 nM for the compounds with a DMSO concentration of 0.1%. Each compound was tested in triplicates (3 wells) for each concentration (100 μM, 10 μM and 100 nM). Additionally, within each plate, 100 nM 5HT and 0.1% DMSO controls were also imaged.
(§3) Imaging was performed using the Leica DMi8 inverted microscope with a 40× objective using the FITC preset with an excitation of 460 nm and emission of 512-542 nm. For each well, the cellular membrane where the 5HT2A sensor is targeted was autofocused using the adaptive focus controls and 5 images from different regions within the well were taken with each image processed from a 2×2 binning.
(§4) For data processing, the membranes from each image was segmented and analyzed using a custom algorithm written in MATLAB producing a single raw fluorescence intensity value. For each well the 5 raw fluorescence intensity values generated from the 5 images were averaged and the change in fluorescence intensity (dFF) was calculated as: dFF=(Fsat−Fapo)/Fapo
(§5) For both agonist and antagonist modes, the fluorescence intensity values before compound addition in HBSS only were used as the Fapo values while the fluorescence intensity values after compound addition were used as the Fsat values.
(§6) For agonist mode, data are as percent activation relative to 5HT, where 0 is the average of the DMSO wells and 100 is the average of the 100 uM 5HT wells. For antagonist mode, the inactivation score was calculated as: Inactivation score=(dFFF(Compound+5HT)−dFF(5HT))/dFF(5HT)

SMILES	5HT2A Antagonist mean @ 100 nM (%)
Cc1nc2ccccc2n1CCN(C)C [Example 58, N,N-dimethyl-2-(2-methyl-1H-benzo[d]imidazol-1-yl)ethan-1-amine]	A (inhibits 5HT response by >100%)
COc1cc2ccn(C[C@@H](C)N(C)C)c2cc1F [Example 61, (R)-1-(6-fluoro-5-methoxy-1H-indol-1-yl)-N,N-dimethylpropan-2-amine]	A (inhibits 5HT response by >100%)

same assay, conditions: 10 μM compound; relative to 5-HT at 100 nM

SMILES	5HT2A Antagonist mean @ 10 μM (%)
Cc1nc2ccccc2n1CCN(C)C [Example 58, N,N-dimethyl-2-(2-methyl-1H-benzo[d]imidazol-1-yl)ethan-1-amine]	A (inhibits 5HT response by >100%)
COc1cc2ccn(C[C@@H](C)N(C)C)c2cc1F [Example 61, (R)-1-(6-fluoro-5-methoxy-1H-indol-1-yl)-N,N-dimethylpropan-2-amine]	A (inhibits 5HT response by >100%)

same assay, conditions: 100 μM compound; relative to 5-HT at 100 nM

SMILES	5HT2A Antagonist mean @ 100 μM (%)
Cc1nc2ccccc2n1CCN(C)C [Example 58, N,N-dimethyl-2-(2-methyl-1H-benzo[d]imidazol-1-yl)ethan-1-amine]	A (inhibits 5HT response by >100%)
COc1cc2ccn(C[C@@H](C)N(C)C)c2cc1F [Example 61, (R)-1-(6-fluoro-5-methoxy-1H-indol-1-yl)-N,N-dimethylpropan-2-amine]	A (inhibits 5HT response by >100%)

biological target: T1, 5HT2A (Homo sapiens, UniProt P28223); experiment: Calcium flux assay (Calcium secondary messenger pathway); assay type: cell-based; settings: agonist mode
T1 construct: expressed in transfected cells
Description: Calcium Flux Assay. Calcium Secondary Messenger Pathway. The Calcium No Wash^PLUS assay monitors the activation of a GPCR (e.g., 5HT2A) via Gq secondary messenger signaling in a live cell, non-imaging assay format. Calcium mobilization in PathHunter® cell lines or other cell lines stably expressing Gq-coupled GPCRs (e.g., 5HT2A) is monitored using a calcium-sensitive dye that is loaded into cells. GPCR (e.g., 5HT2A) activation by a compound results in the release of calcium from intracellular stores and an increase in dye fluorescence that is measured in real-time. In some embodiments, the ability of a compound of the present invention to modulate 5-HT2A function is determined using a calcium flux assay. In some embodiments, a compound of the present invention activates a calcium flux assay.
Calcium Secondary Messenger Pathway. Cell lines were expanded from freezer stocks according to standard procedures. Cells were seeded in a total volume of 20 μL into black-walled, clear-bottom, Poly-D-lysine coated 384-well microplates and incubated at 37° C. for the appropriate time prior to testing. Assays were performed in 1× Dye Loading Buffer consisting of 1× Dye, 1× Additive A and 2.5 mM Probenecid in HBSS/20 mM Hepes. Probenicid was prepared fresh. Cells were loaded with dye prior to testing. Media was aspirated from cells and replaced with 20 μL Dye Loading Buffer. Cells were incubated for 30-60 minutes at 37° C.
For agonist determination, cells were incubated with sample to induce response. After dye loading, cells were removed from the incubator and 10 μL HBSS/20 mM Hepes was added. 3× vehicle was included in the buffer when performing agonist dose curves to define the EC80 for subsequent antagonist assays. Cells were incubated for 30 minutes at room temperature in the dark to equilibrate plate temperature. Intermediate dilution of sample stocks was performed to generate 4× sample in assay buffer. Compound agonist activity was measured on a FLIPR Tetra (MDS). Calcium mobilization was monitored for 2 minutes and 10 μL 4× sample in HBSS/20 mM Hepes was added to the cells 5 seconds into the assay.
Compound activity was analyzed using CBIS data analysis suite (ChemInnovation, CA). For agonist mode assays, percentage activity is calculated using the following formula: % Activity=100%×(mean RFU of test sample−mean RFU of vehicle control)/(mean MAX RFU control ligand−mean RFU of vehicle control).

T1 sequence (P28223 whole entry): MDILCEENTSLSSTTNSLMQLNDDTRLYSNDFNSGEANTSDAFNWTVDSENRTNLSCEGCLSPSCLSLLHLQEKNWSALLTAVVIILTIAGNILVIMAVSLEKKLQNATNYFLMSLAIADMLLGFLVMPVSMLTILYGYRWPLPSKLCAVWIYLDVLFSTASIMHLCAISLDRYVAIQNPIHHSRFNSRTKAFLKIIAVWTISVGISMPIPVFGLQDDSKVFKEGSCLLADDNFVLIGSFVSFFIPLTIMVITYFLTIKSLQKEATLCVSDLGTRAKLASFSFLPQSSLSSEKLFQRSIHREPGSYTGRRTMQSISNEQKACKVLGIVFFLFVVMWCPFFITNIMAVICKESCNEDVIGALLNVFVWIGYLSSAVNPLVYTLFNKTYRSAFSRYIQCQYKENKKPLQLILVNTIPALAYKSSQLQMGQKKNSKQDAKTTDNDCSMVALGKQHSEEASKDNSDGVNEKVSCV

SMILES	EC50 [µM]
Cc1nc2ccccc2n1CCN(C)C [Example 58, N,N-dimethyl-2-(2-methyl-1H-benzo[d]imidazol-1-yl)ethan-1-amine]	> 10
COc1cc2ccn(C[C@@H](C)N(C)C)c2cc1F [Example 61, (R)-1-(6-fluoro-5-methoxy-1H-indol-1-yl)-N,N-dimethylpropan-2-amine]	> 10

tested on: 5HT2A sensor; experiment: 5HT2A sensor assay, agonist mode (sLight1.3s HEK293T stable line); assay type: cell-based; settings: 100 nM compound; percent relative to 5-HT at 100 uM
Method: In some embodiments, hallucinogenic potential of a compound of the present invention is determined in vitro. In some embodiments, hallucinogenic potential of a compound of the present invention is determined using a 5HT2A sensor assay. In some embodiments, the 5HT2A sensor assay is in an agonist mode or an antagonist mode. In some embodiments, the 5HT2A sensor assay is in an agonist mode.
as §1, §2, §3, §4, §5, §6

SMILES	5HT2A Agonist mean @ 100 nM (%)
Cc1nc2ccccc2n1CCN(C)C [Example 58, N,N-dimethyl-2-(2-methyl-1H-benzo[d]imidazol-1-yl)ethan-1-amine]	B (does not activate 5HT2A sensor assay in agonist mode)
COc1cc2ccn(C[C@@H](C)N(C)C)c2cc1F [Example 61, (R)-1-(6-fluoro-5-methoxy-1H-indol-1-yl)-N,N-dimethylpropan-2-amine]	B (does not activate 5HT2A sensor assay in agonist mode)

same assay, conditions: 10 μM compound; percent relative to 5-HT at 100 uM

SMILES	5HT2A Agonist mean @ 10 μM (%)
Cc1nc2ccccc2n1CCN(C)C [Example 58, N,N-dimethyl-2-(2-methyl-1H-benzo[d]imidazol-1-yl)ethan-1-amine]	B (does not activate 5HT2A sensor assay in agonist mode)
COc1cc2ccn(C[C@@H](C)N(C)C)c2cc1F [Example 61, (R)-1-(6-fluoro-5-methoxy-1H-indol-1-yl)-N,N-dimethylpropan-2-amine]	B (does not activate 5HT2A sensor assay in agonist mode)

same assay, conditions: 100 μM compound; percent relative to 5-HT at 100 uM

SMILES	5HT2A Agonist mean @ 100 μM (%)
Cc1nc2ccccc2n1CCN(C)C [Example 58, N,N-dimethyl-2-(2-methyl-1H-benzo[d]imidazol-1-yl)ethan-1-amine]	A (activates 5HT2A sensor assay in agonist mode)
COc1cc2ccn(C[C@@H](C)N(C)C)c2cc1F [Example 61, (R)-1-(6-fluoro-5-methoxy-1H-indol-1-yl)-N,N-dimethylpropan-2-amine]	B (does not activate 5HT2A sensor assay in agonist mode)

tested on: rat cortical neurons; experiment: Neurite outgrowth assay; assay type: cell-based; settings: Cortical neurone, 1 hour treatment at DIV 4, analysed DIV 7, fold vs DMSO control, read-out: Neurite Average Length @ 10 μM
Description: Neurite outgrowth assay. Changes in the pattern of neurite outgrowth have been implicated in neurodegenerative disorders as well as traumatic injuries. The discovery of new compounds that can positively affect neuritogenesis are important for developing new therapeutics for neurological diseases. Measurement of neurite outgrowth of rat cortical neurons using an automated image-based assay was used to determine the neuroplastic effects of the compounds of the present invention. In some embodiments, a compound of the present invention increases the pattern of neurite outgrowth. In some embodiments, a compound of the present invention increases neurite average length compared to a control. In some embodiments, a compound of the present invention increases neurite branch points compared to a control. In some embodiments, a compound of the present invention increases neurite average length and neurite branch points compared to a control.
Neurite Outgrowth Assay. Rat cortical neurons (20,000 cells/well) were freshly isolated from embryonic day 18 rats and cultured in Neurobasal Medium (+B27). The cultured cells were plated in 96 well-plates (avoiding external wells). At DIV 4, the neurons were treated with compound or control (10 μM) for 1 hour followed by complete washout of the compound. At DIV 7, the neurons were analyzed. The experiments were performed in triplicate. Neurite outgrowth was measured analyzing the following parameters: Number of Cell Bodies, total neurite length (pixels), Root Count, Segments, Extremities Count and node points. Changes in the pattern of neurite outgrowth of the neurons were analyzed by immunocytochemistry against β-III-tubulin. Pictures were acquired by the CellInsight CX7 from Thermo Fisher and analyzed using its software. Results generated in the equipment were maximum neurite length, extremity count, root count, dendrite branch points, and total neurite length. The results were compared to DMSO control, representing the fold-change in neuronal outgrowth.

SMILES	fold induction at 10 µM
Cc1nc2ccccc2n1CCN(C)C [Example 58, N,N-dimethyl-2-(2-methyl-1H-benzo[d]imidazol-1-yl)ethan-1-amine]	1.5 to 3
COc1cc2ccn(C[C@@H](C)N(C)C)c2cc1F [Example 61, (R)-1-(6-fluoro-5-methoxy-1H-indol-1-yl)-N,N-dimethylpropan-2-amine]	1.5 to 3

same assay, conditions: Cortical neurone, 1 hour treatment at DIV 4, analysed DIV 7, fold vs DMSO control, read-out: Neurite Branch Points: @ 10 μM

SMILES	fold induction at 10 µM
Cc1nc2ccccc2n1CCN(C)C [Example 58, N,N-dimethyl-2-(2-methyl-1H-benzo[d]imidazol-1-yl)ethan-1-amine]	1.5 to 3
COc1cc2ccn(C[C@@H](C)N(C)C)c2cc1F [Example 61, (R)-1-(6-fluoro-5-methoxy-1H-indol-1-yl)-N,N-dimethylpropan-2-amine]	1.5 to 3
